Measured values: patent US20170105999A1, “METHOD FOR TREATING DRUG RESISTANT CANCER” (NATIONAL YANG MING UNIVERSITY, priority 2014, published 2017)

What was measured:
CL152 spheres = experiment: Cytotoxicity at sphere cells, Trypan Blue Exclusion method; type: cell-based; conditions: read-out: IC50 for prochlorperazine metabolites
CL141 spheres = experiment: as above; type: cell-based; conditions: read-out: IC50 for prochlorperazine metabolites
NSCLC cell lines = system: NSCLC cell lines
Method: (§1) Cells were plated in 96-well plates at a density of 2000 cells per well in triplicate. The cells were treated on the third day (to ensure proper plating efficiency and vitality) to indicated agents for 48 hrs. […] Cytotoxicity was assessed using the sulforhodamine B (SRB) assay (23). Briefly, the medium was discarded, and the adherent cells were fixed by 100 μl of cold 10% trichioroacetic acid (w/v) in each well for 1 h at 4° C. After fixation, cells were stained with 100 μl/well of 0.4% (w/v, in 1% acetic acid) SRB solution for 30 min at room temperature, and then washed 5 times with 1% acetic acid. After air-drying, 100 μl of 10 mM Tris base was added to each well and the absorbance was read at 530 nm. Cytotoxicity is expressed as the percent of cells in drug treated wells relative to number of cells in the solvent only control (set to 100%). Each experiment was performed independently at least 2 times in triplicate and cytotoxicity is given as means ±SD.
(§2) A549, A549-ON, CL97, CL141, HCC827, and H441 were lung adenocarcinoma cell lines. CL152, H2170, and H226 were squamous cell carcinoma cell lines. Cell viability was determined by SRB assay. […] To determine whether side population (SP) cells, which represent a cell population with CSC characteristics, exist in NSCLC cell lines, we stained the cells with the fluorescent dye, Hoechst 33342, and analyzed the cells with flow cytometry.

CL141 [1] = experiment: Cytotoxicity, sulforhodamine B (SRB) assay; type: cell-based; conditions: read-out: IC50 for prochlorperazine metabolites, CL141 parental cells
Method: as §1, §2

CL152 = experiment: Cytotoxicity, sulforhodamine B (SRB) assay; type: cell-based; conditions: read-out: IC50 for prochlorperazine metabolites, CL152 parental cells
Method: as §1, §2

CL141 [2] = experiment: Clonogenic assay; type: cell-based; conditions: CL141; approximately 1,000 cells seeded, 14 days
From the text: […] […] After the treatments, cells were washed with PBS, and the colonies were fixed with fix solution (methanol: acetic acid=3:1) and stained with 0.5% crystal violet in methanol. After removing the crystal violet carefully and rinse with tap water, the colonies were counted manually.

[3] = system: NCI-H441 cells expressing firefly luciferase; experiment: NCI-H441 firefly luciferase tail vein tumor model, drug combination test; type: in vivo, mice; conditions: cisplatin 1 mg/kg + pemetrexed 1 mg/kg
Method: In the first drug combination test, NCI-H441 cells expressing firefly luciferase (6×10^5 cells/injection) were injected into NOD/SCID mice (4-6 week of age) via the lateral tail vein for tumor establishment. […] Tumor burden from different groups were recorded by caliper. The change in tumor size was expressed as in fold change and plotted over time. Subsequently, we performed another set of drug combination test. […] For lung adenocarcinoma, the standard drug combination is pemetrexed and cisplatin whereas are used gemcitabine and cisplatin for lung squamous carcinoma. […] CL97 cancer cells (1.5×10^6 cells per injection) were injected subcutaneously into NOD/SCID mice to establish in viva tumor model.
In the drug combination test ([…]), NCI-H441 cells expressing firefly luciferase ([…] cells/injection) were injected into NOD/SCID mice (4-6 week of age) via the lateral tail vein for tumor establishment.

A549 cells = experiment: Senescence, β-galactosidase (SA-β-Gal) activity; type: cell-based; conditions: A549, 24 hours; 1 μM prochlorperazine, 50 μM resveratrol as positive control
From the text: EMT also plays a critical role in the regulation of cancer sternness. EMT is characterized by enhanced cell migration and invasion.

Clc1ccc2c(c1)N(CCCN1CCNCC1)c1ccccc1S2 [N-desmethyl prochlorperazine]
IC50 (CL152 spheres): < 5 µM
IC50 (CL141 spheres): < 5 µM
cytotoxic effect in NSCLC cell lines compared with other metabolites (NSCLC cell lines): better cytotoxic effect than other tested metabolites
IC50 (CL141 [1]): 5 to 10 µM
IC50 (CL152): ~10 µM

CC1(C)CCCN1CCCN1c2ccccc2Sc2ccc(Cl)cc21 [NSC 14948]
Clonogenic assay for prochlorperazine analogs (CL141 [2]): 5-10 μM

CCc1ccc2c(c1)N(CCCN(CCCl)CCCl)c1ccccc1S2 [NSC 166184]
Clonogenic assay for prochlorperazine analogs (CL141 [2]): 1-2.5 μM

CCN(CC)CCCN1c2ccccc2Sc2ccc(Cl)cc21 [NSC 169470]
Clonogenic assay for prochlorperazine analogs (CL141 [2]): 5-10 μM

CN(C)c1ccc(-c2c3ccccc3nc3ccc(Cl)cc23)cc1 [NSC 406619]
Clonogenic assay for prochlorperazine analogs (CL141 [2]): 2.5-5 μM

C[N+]1([O-])CCN(CCCN2c3ccccc3[S+]([O-])c3ccc(Cl)cc32)CC1 (stereo not shown) [Prochlorperazine sulfoxide 4′-N-oxide]
IC50 (CL152 spheres): > 10 µM
IC50 (CL141 spheres): > 10 µM
IC50 (CL141 [1]): > 20 µM
IC50 (CL152): > 20 µM

CN1CCN(CCCN2c3ccccc3[S+]([O-])c3ccc(Cl)cc32)CC1 (stereo not shown) [Prochlorperazine sulfoxide]
IC50 (CL152 spheres): > 10 µM
IC50 (CL141 spheres): 5 to 10 µM
IC50 (CL141 [1]): > 20 µM
IC50 (CL152): > 20 µM

N.N.[Cl][Pt][Cl] [cisplatin]
inhibitory effect on tumor growth, cisplatin in combination with pemetrexed vs pemetrexed alone [3]: not significantly different

Oc1ccc(C=Cc2cc(O)cc(O)c2)cc1 [resveratrol]
β-galactosidase activity (senescence) (A549 cells): increased β-galactosidase activity
